According to US10092541B2, “Methods for the treatment of diseases ameliorated by PDE4 inhibition using dosage titration of apremilast” (CELGENE CORPORATION, priority 2014, dated 2018):
Marks after values point to notes of the source that are not given here.

Experiments:
[1] = system: patients with moderate to severe plaque psoriasis; assay: Esteem 2: randomized, double-blind, placebo controlled, multicenter clinical study in psoriasis; assay type: in vivo, human; settings: for PPPGA score 0 (clear) or 1 (almost clear), %: patients with palmoplantar psoriasis (PPPGA ≥3), n = 26; for ScPGA score 0 (clear) or 1 (minimal), %: patients with scalp psoriasis (ScPGA ≥3), n = 176
Description: In the study 413 patients were enrolled; patients ranged in age from 18 to 83 years, with an overall median age of 46 years. The mean baseline body surface area (BSA) involvement was 25.19% (median 21.0%), the mean baseline PASI score was 19.07 (median 16.80), and the proportion of patients with sPGA score of 3 (moderate) and 4 (severe) at Baseline were 70.0% and 29.8%, respectively. Patients were randomized to Apremilast in an amount of 30 mg twice per day (after the initial dose titration schedule) or placebo for the first 16 weeks, and from Weeks 16 to 32, all patients received Apremilast in an amount of 30 mg twice per day.
Target Dose: 30 mg (po) BID
Day 1: 10 mg in the morning
Day 2: 10 mg morning; 10 mg after noon
Day 3: 10 mg morning; 20 mg after noon
Day 4: 20 mg morning; 20 mg after noon
Day 5: 20 mg morning; 30 mg after noon
During the Randomized Treatment Withdrawal Phase (Weeks 32-52), patients originally randomized to Apremilast who achieved at least a 50% reduction in PASI score (PASI-50) were re-randomized to either placebo or Apremilast 30 mg BID. Patients who were re-randomized to placebo and who lost 50% of the improvement in PASI at Week 32 compared to Baseline, were retreated with Apremilast 30 mg BID.

[2] = system: patients with moderate to severe atopic dermatitis; assay: Open-label pilot study of 2 doses of apremilast in adult atopic dermatitis; assay type: in vivo, human; settings: for DLQI scores, average reduction / EASI scores, average reduction / patients who reduced their IGA score by 1 U / average reduction in itch using a VAS / DLQI score, mean after treatment / EASI score, mean after treatment / VAS for pruritus, mean after treatment: 3 months; for average reduction in itch using a VAS: intent-to-treat; for EASI after treatment: from 21.1
[3] = Week 16, 30 mg BID, patients with baseline DLQI >5, n = 226
[4] = Week 16, 30 mg BID, patients with nail psoriasis (score ≥1), n = 175
[5] = Week 16, 30 mg BID, listed as Apremilast
[6] = initially randomized to apremilast, did not achieve PASI-50 at Week 32
[7] = patients treated with apremilast from baseline
[8] = placebo at baseline, switched to apremilast at Week 16, achieved PASI-50 at Week 32
[9] = placebo at baseline, switched to apremilast at Week 16, did not achieve PASI-50 at Week 32
[10] = cohort 2, 30 mg twice a day, 6 months

Discontinuation due to upper respiratory tract infection ([1]; human, in vivo): No patient discontinued
Compound: CCOc1cc([C@@H](CS(C)(=O)=O)N2C(=O)c3cccc(NC(C)=O)c3C2=O)ccc1OC [apremilast, (+)-2-[1-(3-ethoxy-4-methoxyphenyl)-2-methylsulfonylethyl]-4-acetylaminoisoindoline-1,3-dione]
DLQI (decrease of ≥5 points) + PASI-50 response, % [1, 3]: 49.1* % | DLQI response (decrease of ≥5 points), % [1, 3]: 70.8* % | Mean % change in NAPSI score [1, 4]: −29.0** % | NAPSI-50, % [1, 4]: 44.6% | NAPSI-50, % ([1]; Week 16, 30 mg BID, patients with nail psoriasis (score ≥1), n = 175, listed as Apremilast): 44.6* % | PPPGA score 0 (clear) or 1 (almost clear), % ([1]; Week 16, 30 mg BID): 65.4% | PPPGA score 0 (clear) or 1 (almost clear), % [1, 5]: 65.4^|| % | ScPGA score 0 (clear) or 1 (minimal), % ([1]; Week 16, 30 mg BID): 40.9% | ScPGA score 0 (clear) or 1 (minimal), % [1, 5]: 40.9* % | Response rates in placebo patients who switched to apremilast at Week 16 vs apremilast in both treatment periods ([1]; Weeks 16 to 32): response rates similar | Severity of the majority of adverse events ([1]; did not lead to discontinuation): mild to moderate | 5 most common adverse events (AEs) ([1]; human, in vivo): diarrhea, nausea, upper respiratory tract infection, tension headache, and headache | Discontinuations due to AEs: diarrhea ([1]; human, in vivo): 0.8% | Discontinuations due to AEs: headache ([1]; human, in vivo): 0.4% | Discontinuations due to AEs: nausea ([1]; human, in vivo): 1.2% | Discontinuations due to AEs: tension headache ([1]; human, in vivo): 0.2% | PASI-50 at Week 52 [1, 6]: 32.8% | mean percent change from baseline in PASI score at Week 52 [1, 6]: −45.7% | median time to first loss of 50% of the PASI improvement obtained at Week 32 ([1]; patients re-randomized to apremilast): 21.9 weeks | PASI, sPGA, and DLQI responses from Weeks 16 to 32 [1, 7]: generally maintained | PASI-50, PASI-75, and PASI-90 responses from Weeks 16 to 32 [1, 7]: generally maintained | PASI-50 at Week 52 [1, 8]: 83.1% | mean percent change in PASI from baseline at Week 52 [1, 8]: −71.8% | PASI-50 at Week 52 [1, 9]: 16.0% | mean percent change from baseline in PASI at Week 52 [1, 9]: −24.7% | signs and symptoms of psoriasis ([1]; study conclusion): significantly improved | DLQI after treatment ([2]; both cohorts combined, post hoc intent-to-treat, mean baseline 11.6): 4.7 | EASI score after treatment ([2]; both cohorts combined, post hoc intent-to-treat, mean baseline 24.8): 16.2 | VAS after treatment ([2]; both cohorts combined, post hoc intent-to-treat, mean baseline 52.0 mm): 31.7 mm | time to statistically significant decline in pruritus ([2]; cohort 1, 20 mg twice a day): ≤ 2 weeks | DLQI scores, average reduction ([2]; cohort 1, 20 mg twice a day): 55% | EASI scores, average reduction ([2]; cohort 1, 20 mg twice a day): 19% | patients who reduced their IGA score by 1 U ([2]; cohort 1, 20 mg twice a day, 6 patients): 1 | average reduction in itch using a VAS ([2]; cohort 1, 20 mg twice a day): 49% | DLQI score, mean after treatment ([2]; cohort 1, 20 mg twice a day, mean baseline 14.2): 6.2 | EASI score, mean after treatment ([2]; cohort 1, 20 mg twice a day, mean baseline 30.9): 22.1 | VAS for pruritus, mean after treatment ([2]; cohort 1, 20 mg twice a day, mean baseline 62.3 mm): 30.5 mm | time to statistically significant clinical improvement in atopic dermatitis ([2]; cohort 2, 30 mg twice a day): ≤ 2 weeks | patients who achieved an IGA score of mild ([2]; cohort 2, 30 mg twice a day, 3-month time point): One patient | DLQI scores, average reduction ([2]; cohort 2, 30 mg twice a day): 58% | EASI scores, average reduction ([2]; cohort 2, 30 mg twice a day): 39% | patients who reduced their IGA score by 1 U ([2]; cohort 2, 30 mg twice a day, 10 patients): Two of 10 patients | average reduction in itch using a VAS ([2]; cohort 2, 30 mg twice a day): 25% | VAS for pruritus, mean after treatment ([2]; cohort 2, 30 mg twice a day, baseline 45.8 mm): 32.4 mm | DLQI score, mean after treatment ([2]; cohort 2, 30 mg twice a day, mean baseline 10.1): 3.8 | EASI score, mean after treatment ([2]; cohort 2, 30 mg twice a day, mean baseline 21.4): 13.2 | patients improved at least 1 U in the IGA, % [2, 10]: 50% | patients improved at least 1 U in the IGA, number [2, 10]: Five patients | patients who achieved an IGA of almost clear [2, 10]: 1 | patients who reached an IGA of mild [2, 10]: Four of these 5 | EASI after treatment ([2]; cohort 2, 30 mg twice a day, 6 months, intent to treat): 11.6 | VAS after treatment ([2]; cohort 2, 30 mg twice a day, 6 months, intent to treat, from 45.8 mm): 25.3 mm | DLQI after treatment ([2]; cohort 2, 30 mg twice a day, 6 months, per protocol, from 10.1): 4.0 | EASI after treatment ([2]; cohort 2, 30 mg twice a day, 6 months, per protocol): 10.4 | VAS after treatment ([2]; cohort 2, 30 mg twice a day, 6 months, per protocol, from 45.8): 22.7 | patients who reached an IGA score of clear or almost clear ([2]; either cohort (20 mg or 30 mg twice a day), 3-month time point): No patient
